{
  "source": "paper PMC12823633",
  "about": "(Cancer Chemotherapy and Pharmacology, 2026)",
  "key": {"[1]": {"system": "CYP3A4", "details": "1’-hydroxymidazolam"}, "[2]": {"biological_target": "CYP2C9 (Homo sapiens, UniProt P11712)", "sequence (P11712 whole entry)": "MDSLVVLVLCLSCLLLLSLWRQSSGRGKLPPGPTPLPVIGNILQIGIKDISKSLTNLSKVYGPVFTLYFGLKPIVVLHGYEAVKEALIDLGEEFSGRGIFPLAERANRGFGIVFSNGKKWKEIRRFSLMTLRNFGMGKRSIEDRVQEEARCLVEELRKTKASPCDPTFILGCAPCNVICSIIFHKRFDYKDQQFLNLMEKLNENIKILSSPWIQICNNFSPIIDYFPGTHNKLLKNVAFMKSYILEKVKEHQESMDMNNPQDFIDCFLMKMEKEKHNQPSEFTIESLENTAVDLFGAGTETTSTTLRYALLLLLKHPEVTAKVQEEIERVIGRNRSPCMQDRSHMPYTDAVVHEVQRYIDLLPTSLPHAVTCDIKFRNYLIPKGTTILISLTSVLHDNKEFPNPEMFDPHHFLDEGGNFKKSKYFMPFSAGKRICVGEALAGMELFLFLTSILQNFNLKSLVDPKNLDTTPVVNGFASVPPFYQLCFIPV", "assay": "clinical", "details": "plasma, oral, 25 mg"}, "[3]": {"assay": "Adverse events, DDI evaluation period", "type": "in vivo, human (patients with solid tumors)"}, "[4]": {"details": "midazolam 2.5 mg alone (Day −2)"}, "[5]": {"details": "midazolam 2.5 mg with TAS-115 250 mg once daily (Day 5)"}, "[6]": {"details": "After Administration of TAS-115, DDI period (N=18)"}, "[7]": {"details": "Before Administration of TAS-115 (N=18)"}, "[8]": {"details": "Entire DDI Evaluation Period (N=18)"}},
  "note": "Like-named read-outs stand apart in the source and are kept apart here.",
  "data": [
    {"smiles": "OCc1ncc2n1-c1ccc(Cl)cc1C(c1ccccc1F)=NC2", "note": "[1’-Hydroxymidazolam, 1’-hydroxymidazolam]", "values": [
      {"measurement": "AUCinf, Geometric LSM", "setting": "[1]; [4]", "value": 19.92, "unit": "ng·h/mL"},
      {"measurement": "AUClast, Geometric LSM", "setting": "[1]; [4]", "value": 19.33, "unit": "ng·h/mL"},
      {"measurement": "Cmax, Geometric LSM", "setting": "[1]; [4]", "value": 8.195, "unit": "ng/mL"},
      {"measurement": "AUCinf, Geometric LSM", "setting": "[1]; [5]", "value": 20.86, "unit": "ng·h/mL"},
      {"measurement": "AUClast, Geometric LSM", "setting": "[1]; [5]", "value": 20.13, "unit": "ng·h/mL"},
      {"measurement": "Cmax, Geometric LSM", "setting": "[1]; [5]", "value": 8.391, "unit": "ng/mL"}
    ]},
    {"smiles": "CCCCc1nc(Cl)c(CO)n1Cc1ccc(-c2ccccc2-c2nn[nH]n2)cc1", "note": "[Losartan, losartan, reference compound]", "values": [
      {"measurement": "AUC(0-inf)", "setting": "[2]", "value": 388, "unit": "ng·h/mL"},
      {"measurement": "AUC(0-t)", "setting": "[2]", "value": 364, "unit": "ng·h/mL"},
      {"measurement": "Cmax", "setting": "[2]", "value": 158, "unit": "ng/mL"},
      {"measurement": "Any >=Grade 3 TRAEs Related to Losartan", "setting": "[3]; [6]", "value": "0 (0.0) N (%)"},
      {"measurement": "Any TRAEs Related to Losartan", "setting": "[3]; [6]", "value": "1 (5.6) N (%)"},
      {"measurement": "Any >=Grade 3 TRAEs Related to Losartan", "setting": "[3]; [7]", "value": "0 (0.0) N (%)"},
      {"measurement": "Any TRAEs Related to Losartan", "setting": "[3]; [7]", "value": "0 (0.0) N (%)"},
      {"measurement": "TRAE (Grade 1 hypotension) related to losartan", "setting": "[3]; DDI evaluation period, losartan administered after TAS-115", "value": "one patient"},
      {"measurement": "Any >=Grade 3 TRAEs Related to Losartan", "setting": "[3]; [8]", "value": "0 (0.0) N (%)"},
      {"measurement": "Any TRAEs Related to Losartan", "setting": "[3]; [8]", "value": "1 (5.6) N (%)"}
    ]}
  ]
}
